In paper PMC6943552, “Glucosinolates in Sisymbrium officinale (L.) Scop.: Comparative Analysis in Cultivated and Wild Plants and in Vitro Assays with T2Rs Bitter Taste Receptors” (Molecules, 2019):

Molecular target: T1, T2R16 (hT2R16) (Homo sapiens, UniProt Q9NYV7)
T1 construct: gene TAS2R16; coding region with N-terminal rSST3 tag (45 N-terminal residues of rat somatostatin receptor subtype 3), pcDNA5, transient in HEK293 PEAKrapid Galpha16i/o44 cells
T1 sequence (Q9NYV7 1-291): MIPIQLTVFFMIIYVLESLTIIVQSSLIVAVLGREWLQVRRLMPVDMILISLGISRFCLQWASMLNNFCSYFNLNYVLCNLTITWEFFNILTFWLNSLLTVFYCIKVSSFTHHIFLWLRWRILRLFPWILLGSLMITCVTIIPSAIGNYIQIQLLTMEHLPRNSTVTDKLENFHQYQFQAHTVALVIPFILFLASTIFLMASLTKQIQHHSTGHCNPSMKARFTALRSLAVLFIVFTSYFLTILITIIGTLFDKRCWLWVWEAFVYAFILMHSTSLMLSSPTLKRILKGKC
Test: FLIPR calcium imaging (Cal520-AM)
Format: cell-based

CC(C)/C(=N/OS(=O)(=O)O)S[C@@H]1O[C@H](CO)[C@@H](O)[C@H](O)[C@H]1O [compound 3, glucoputranjivin]
EC50: > 1000 µM
